Where two headings read alike, the source gives them in different places.
Tests used:
[1] = system: HCT116 (human colon carcinoma cells); assay: Tumor cell proliferation inhibition test, CCK-8 method (Example 19); type: cell-based
Experimental: (§1) A part of the compounds prepared in the examples of the present disclosure were subjected to a tumor cell proliferation inhibition test by using a CCK-8 method. A cell line HCT116 (human colon carcinoma cells) and SW1990 (human pancreatic carcinoma cells) were purchased from Shanghai Meixuan Technology Co., Ltd. Samples (a part of the compounds prepared in the examples) were dissolved in DMSO (Merck), prepared into a concentration of 10 mM, and finally triply diluted in DMEM or McCoy's 5A 1640 medium to 8 concentration gradients. A cell culture solution was collected when a cell culture met a test requirement, 10 μL of the cell culture solution was uniformly coated on a cell counting plate, cells were counted for 3 times under a microscope, and a cell density was calculated by taking an average value; and a 96-well plate (Corning, #3599) was taken, 200 μL of the cell culture solution was added into each well for cell inoculation at a cell concentration of 6×10^3 cells per well, and the inoculated 96-well plate was incubated in a cell incubator containing 5% CO2 at 37° C. for 24 h. An old culture medium was removed by suction, 200 μL of the triply diluted sample DMEM or McCoy's 5A 1640 medium at an initial concentration of 10 μmol/L was added to each well, the DMSO content was controlled to be 1%, three duplicate wells were set, PBS was used as a blank control, and the plate was incubated in the incubator for 72 h. The original DMEM or McCoy's 5A 1640 medium in the 96-well plate and a PBS buffer in a final row were sucked out, a prepared CCK-8 solution (90% DMEM or McCoy's 5A 1640 medium+10% CCK-8) was added, the mixture was incubated in an incubator, and an absorbance was read by using a Biotek microplate reader. Cell growth inhibition rate IC %=(blank control well OD value−administration well OD value)/blank control well OD value×100%.

[2] = system: SW1990 (human pancreatic carcinoma cells); assay: as above; type: cell-based
Experimental: as §1

[3] = system: human gastric carcinoma MGC803; assay: In-vivo antitumor activity test in human gastric carcinoma MGC803 (subcutaneous tumor block in nude mice); set-up: species or system BALB/C nude mice; settings: for RTV (d22) / Body weight of animals (After a tumor is removed) / Tumor inhibition rate %: MGC803; for Body weight of animals (After a tumor is removed) / Tumor inhibition rate %: d22
Experimental: (§2) Animals: BALB/C nude mice (SPF grade), male, and 18-20 g. The compounds were firstly added with DMSO at a total amount of 4%, then added with Tween-80 at a total amount of 2% for assisting dissolution, then added with PEG300 at a total amount of 5%, and finally added with sterilized normal saline to be prepared into a solution at 1 mg/mL. Idasanutlin was firstly added with DMSO at a total amount of 4%, then added with Tween-80 at a total amount of 2% for assisting dissolution, then added with PEG300 at a total amount of 5%, and finally added with sterilized normal saline to be prepared into a solution at 2.5 mg/mL.
A well-grown human gastric carcinoma MGC803 tumor mass was taken and aseptically cut into uniform small blocks of about 3 mm in size, and a right axilla of each mouse was subcutaneously inoculated with one block through a trocar. […] The animals were regrouped according to a tumor size. The animals with too large and too small tumors were sifted out. An average tumor volume in each group was approximately the same. An administration was started according to the following solution with an administration volume of 0.2 mL/20 g body weight. A long diameter a (mm) of the tumor and a short diameter b (mm) vertical to the tumor were measured by a digital display electronic caliper 2 times a week from day 9 of the inoculation. A tumor volume was calculated by the formula: TV=ab^2/2, and a relative tumor volume was calculated by the formula: RTV=Vt/Vo, wherein Vo was the obtained tumor volume measured at a cage separation (i.e. d1) and Vt was the tumor volume measured at each time. The animals were sacrificed 30 days after the inoculation (d22) and weighed, tumor mass was obtained by dissection and weighed, and the results were determined according to the following formula: […]

[4] = In-vivo antitumor activity test in human stromal tumor SHG44 (subcutaneous tumor block in nude mice); set-up: species or system BALB/C nude mice; settings: for RTV (d22) / Tumor inhibition rate % / Body weight of animals (After a tumor is removed): SHG44; for Tumor inhibition rate % / Body weight of animals (After a tumor is removed): d22; for Body weight of animals (After a tumor is removed): in g (unit assumed)
Experimental: as §2
(§3) A well-grown human stromal tumor SHG44 mass was taken and aseptically cut into uniform small blocks of about 3 mm in size, and a right axilla of each mouse was subcutaneously inoculated with one block through a trocar. […] The animals were regrouped according to a tumor size. The animals with too large and too small tumors were sifted out. An average tumor volume in each group was approximately the same. An administration was started according to the following solution with an administration volume of 0.2 mL/20 g body weight. A long diameter a (mm) of the tumor and a short diameter b (mm) vertical to the tumor were measured by a digital display electronic caliper 2 times a week from day 9 of the inoculation. A tumor volume was calculated by the formula: TV=ab^2/2, and a relative tumor volume was calculated by the formula: RTV=Vt/Vo, wherein Vo was the obtained tumor volume measured at a cage separation (i.e. d1) and Vt was the tumor volume measured at each time. The animals were sacrificed 30 days after the inoculation (d22) and weighed, tumor mass was obtained by dissection and weighed, and the results were determined according to the following formula: […]

[5] = system: human esophageal cancer KYSE-150; assay: In-vivo antitumor activity test in human esophageal cancer KYSE-150 (subcutaneous tumor block in nude mice); set-up: species or system BALB/C nude mice; settings: for RTV (d22) / Body weight of animals (After a tumor is removed) / Tumor inhibition rate %: KYSE-150; for Body weight of animals (After a tumor is removed) / Tumor inhibition rate %: d22
Experimental: as §2
as §3, with “esophageal cancer KYSE-150” for “stromal”, “tumor” for “tumor SHG44”

[6] = 10 mg/kg, Ipx5 each week for 2 continuous weeks

For `COc1cc(C(=O)NCCOCCOCCOCCOCCC(=O)N[C@@H](C(=O)N[C@@H](CCCNC(N)=O)C(=O)Nc2ccc(COC(=O)N3CCN(C(=O)O[C@H]4CC[C@@]5(C)[C@H](CC[C@@H]6[C@@H]5[C@H](O)C(=O)[C@]5(C)[C@@H](c7ccc(=O)oc7)CC[C@]65O)C4)CC3)cc2)C(C)C)ccc1NC(=O)[C@@H]1N[C@@H](CC(C)(C)C)[C@](C#N)(c2ccc(Cl)cc2F)[C@H]1c1cccc(Cl)c1F` [Compound I-1], the IC50 ([1]; 72 h) was 34 nM, the IC50 ([2]; 72 h) was 7 nM and the “in-vivo antitumor activity of the human gastric carcinoma MGC803 (in words)” value [3] was “good in-vivo antitumor activity”. For the same compound, the “RTV (d22)” value [3, 6] was 2.45 ± 0.54, the “Body weight of animals (After a tumor is removed)” value (shortened to “Body weight of animals”) [3, 6] was 26.15 ± 1.14 and the “Tumor inhibition rate %” value [3, 6] was 38.54%. The “in-vivo antitumor activity of the human stromal tumor SHG44 (in words)” value [4] was “good in-vivo antitumor activity”, the “RTV (d22)” value [4, 6] was 2.34 ± 0.32 and the “Tumor inhibition rate %” value [4, 6] was 52.03%. For the same compound, the “Body weight of animals” value [4, 6] was 24.78 ± 2.38, the “in-vivo antitumor activity of the human esophageal cancer KYSE-150 (in words)” value [5] was “good in-vivo antitumor activity” and the “RTV (d22)” value [5, 6] was 4.87 ± 0.92. The “Body weight of animals” value [5, 6] was 24.51 ± 1.40 and the “Tumor inhibition rate %” value [5, 6] was 50.45%.
For `COc1cc(C(=O)O)ccc1NC(=O)[C@@H]1N[C@@H](CC(C)(C)C)[C@](C#N)(c2ccc(Cl)cc2F)[C@H]1c1cccc(Cl)c1F` [Idasanutlin, reference compound], the IC50 ([1]; Homo sapiens, HCT-116, CCK-8, 72 h, Table 1, read-out: IC50 HCT116) was 1060 nM, the IC50 ([2]; Homo sapiens, SW1990, CCK-8, 72 h, Table 1, read-out: IC50 SW1990) was 2980 nM and the “RTV (d22)” value ([3]; 25 mg/kg, Igx14) was 2.74 ± 0.81. The “Body weight of animals” value ([3]; 25 mg/kg, Igx14) was 23.58 ± 1.56, the “Tumor inhibition rate %” value ([3]; 25 mg/kg, Igx14) was 31.36% and the “RTV (d22)” value ([4]; 25 mg/kg, Igx14) was 2.95 ± 0.41. The “Tumor inhibition rate %” value ([4]; 25 mg/kg, Igx14) was 39.59%, the “Body weight of animals” value ([4]; 25 mg/kg, Igx14) was 24.47 ± 1.66 and the “RTV (d22)” value ([5]; 25 mg/kg, Igx14) was 4.79 ± 0.41. The “Body weight of animals” value ([5]; 25 mg/kg, Igx14) was 24.03 ± 0.95 and the “Tumor inhibition rate %” value ([5]; 25 mg/kg, Igx14) was 51.17%.

Reference: patent publication US20240024494A1, “SMALL-MOLECULE CONJUGATE AND USE THEREOF” (SHANGHAI MEWSGEN BIOTECHNOLOGY CO., LTD, priority 2020, published 2024)
